Patent US20140190496A1, “METHODS AND DEVICES FOR COMPOUND DELIVERY” (priority 2012, published 2014)
Values joined by “and” are separate entries in the source; they are usually repeats but may differ in a detail not shown here. Equal entries are not always repeated.

What was measured:
[1] = Aerosol particle size from test apparatus with wire coil heater element; assay type: physicochemical; settings: stainless steel coil heater, 3.5 coils; air flow 2 Liters/min; dose 1 mg; 2.5 Amps; 1 second
[2] = Particle size diameter, ENT-100-D, heater element leads lengthened, with or without MARK V adder; assay type: physicochemical; settings: foam replaced w/SS screen, flow 2.04-2.06 LPM, 2 amps
Excerpt: This example describes the particle size diameters (PSD) of aerosols generated from a heater element as described in FIG. 36. The length of the leads in this example is 0.70 inches (about 17.78 mm). The heater element is inserted into the device depicted in FIG. 31D. […] In this example, the liquid formulation comprises propylene glycol and it wicks onto the ends of the wire of the heater element and onto the brass contacts.

[3] = Aerosol particle size from test airway apparatus with stainless steel foil heater element; assay type: physicochemical; settings: dose 1 mg
Excerpt: A hole to deposite drug (2706a) is provided and foil is shown (2708a). Brass contacts (2710a) are provided.

[4] = Effect of gravity (device rotation) on particle size diameter, ENT-100-D; assay type: physicochemical; settings: ENT-100-D loaded with 2 mg; device rotated 90 degrees in all dimensions from baseline
Excerpt: The device is rotated 90 degrees in all dimensions from a stable baseline position. […] As a result, the device produces particles of a consistent size regardless of the orientation in space of the device.

[5] = Particle size diameter of aerosols from ENT-100-A/B/C devices with wire coil heater elements and bypass inlets; assay type: physicochemical; settings: 1 sec, listed as propylene glycol formulation
Excerpt: This example describes the particle size diameters (PSD) of aerosols generated from a device comprising a heater element comprising a wire coil. […] The “A Coil” comprises a stretch of coil followed by a straight lead on either end of the coil which connects to the brass contacts. The “B Coil” comprises a stretch of coil, wherein the coil itself connects to the brass contacts.

[6] = cited from earlier work

SMILES	Particle Size Diameter (microns) [1]	PSD (microns) ([2]; flow 2.04 LPM)	PSD (microns) ([2]; flow 2.05 LPM)	PSD (microns) ([2]; flow 2.06 LPM)	Particle Size Diameter (microns) ([3]; heater element thickness 0.0005 inches, air flow 1 Liters/min, 6 Amps, heating 1 second)	Particle Size Diameter (microns) ([3]; heater element thickness 0.0005 inches, air flow 1 Liters/min, 8 Amps, heating 0.5 seconds)	Particle Size Diameter (microns) ([3]; heater element thickness 0.001 inches, air flow 1 Liters/min, 8 Amps, heating 0.7 seconds)	Particle Size Diameter (microns) ([3]; heater element thickness 0.001 inches, air flow 3 Liters/min, 7 Amps, heating 1 second)	Particle Size Diameter (microns) ([3]; heater element thickness 0.001 inches, air flow 3 Liters/min, 10 Amps, heating 1 second)	Particle Size Diameter (microns) ([3]; heater element thickness 0.001 inches, air flow 6 Liters/min, 10 Amps, heating 1 second)	Particle Size Diameter (microns) ([3]; heater element thickness 0.001 inches, air flow 12 Liters/min, 10 Amps, heating 1 second)	particle size diameter at each rotation [4]	PSD (microns) ([5]; B Coil, dose 2 mg, 2.0 amps, heater element moved aft, B configuration (total flow 12 LPM), flow 1.5-1.60 LPM, flow 1.5 LPM)	PSD (microns) ([5]; B Coil, dose 2 mg, 2.0 amps, heater element moved aft, B configuration (total flow 12 LPM), flow 1.5-1.60 LPM, flow 1.60 LPM)	PSD (microns) ([5]; ENT-100-B with B Coil, dose 2 mg, 2.0 amps, bypass untaped, total flow ~8.5 LPM, flow 1.5-1.52 LPM, flow 1.5 LPM)	PSD (microns) ([5]; ENT-100-B with B Coil, dose 2 mg, 2.0 amps, with stainless steel (SS) screen to even flow, flow 1.55-1.56 LPM, flow 1.56 LPM)	PSD (microns) ([5]; ENT-100-C, new heater element .032 ID 0.100 stretch, 2 mg dose, flow 2.04 LPM, 2.6 amps)	time to achieve peak increments of plasma nicotine concentration ([6]; smoking a cigarette)	peak increments of plasma nicotine concentration ([6]; smoking a single cigarette)
CC(O)CO (stereo not shown) [PG, propylene glycol]	1.5-2.2 microns	2.7-3.0 microns and 2.8-3.0 microns	2.6-2.8 microns	3.0-3.1 microns	2.1-3 microns	2 microns	1 microns	1.8 microns and 2 microns and 1.5-1.8 microns and 1.4-1.8 microns	1 microns and 0.9 microns	0.6 microns and 0.6-0.8 microns	0.5 microns	found not to change	1.7-1.8 microns	1.7-1.75 microns	1.8-1.9 microns	2.6-2.9 microns	2.0-2.5 microns and 2.0-2.2 microns and 2.1-2.3 microns and 2.1-2.2 microns	–	–
CN1CCCC1c1cccnc1 (stereo not shown) [nicotine]	–	–	–	–	–	–	–	–	–	–	–	–	–	–	–	–	–	≤ 10 min	5 to 30 ng/mL
